Data published in PMC10823468, “Design, Synthesis, and Evaluation of New 1H-Benzo[d]imidazole Based PqsR Inhibitors as Adjuvant Therapy for Pseudomonas aeruginosa Infections” (Journal of Medicinal Chemistry, 2024).

Assays:
[1] = system: AQ production in P. aeruginosa laboratory strains and CF isolates; experiment: Alkyl quinolone (AQ: HHQ, PQS, HQNO) quantification by LC-MS/MS; format: cell-based, Pseudomonas aeruginosa
Source text: PqsR directly regulates the biosynthesis of diverse AQs, of which HHQ and PQS act as QS molecules, while others such as 2-heptyl- 4-hydroxyquinoline N-oxide (HQNO) are potent cytochrome bc1 inhibitors that contribute to the environmental competitiveness of this pathogen.[9],[28] Previous studies have shown that PQS is a multifunctional iron chelator acting via PqsR-dependent and PqsR-independent pathways, contributing directly to iron acquisition and microvesicle formation.[29] […] PqsR inhibition reduces production of AQ, which can be quantified to serve as a direct readout for pqs system inhibition.[9] To this end, 6f was incubated with various P. aeruginosa laboratory strains and CF isolates and its impact on AQ production determined quantitatively using LCMS/MS and compared with untreated samples.
For each test sample, 100 μL of sterile filtered supernatant was spiked with 10 μL of an internal standard solution (10 μM d4-PQS in MeOH) and diluted with water to a total volume of 500 μL. Samples were then extracted three times with an 0.5 mL aliquot of ethyl acetate, vortex mixing the aqueous/organic mix for 2 min, then removing the organic phase once the layers had successfully partitioned. For each sample, the combined organic extracts were dried under vacuum and redissolved in 100 μL of MeOH prior to analysis. For the LC-MS/MS analysis of supernatant extracts, the chromatography was achieved using a Shimadzu series 10AD VP LC system (Columbia, MD, USA). The LC column, maintained at 40 °C, was a Phenomenex Gemini C18 (3.0 μm, 100 mm × 3.0 mm) (Macclesfield, Cheshire, UK) with an appropriate guard column. Mobile phase A was 0.1% (v/v) formic acid in water containing 2 mM 2-picolinic acid, and mobile phase B 0.1% (v/v) formic acid in methanol. The flow rate throughout the chromatographic separation was 450 μL/min. After an injection of a 2 μL/sample, a binary gradient, beginning initially at 30% B, increased linearly to 99% B over 5 min. The composition remained at 99% B for 3 min, decreased to 30% B over 1 min, and stayed at this composition for 4 min, to allow for column equilibration. The MS system used for analyte detection was an Applied Biosystems Qtrap 4000 hybrid triple-quadrupole linear ion trap mass spectrometer (Foster City, CA, USA), equipped with an electrospray ionization (ESI) interface. Instrument control, data collection, and analysis were conducted using Analyst software (Foster City, CA, USA). […] Where chromatographic peaks for HHQ, HQNO, and PQS were detected, a peak area was determined, and analyte peak area/internal standard peak area calcdulated.

[2] = system: pyocyanin production in P. aeruginosa; experiment: Pyocyanin quantification; format: cell-based, Pseudomonas aeruginosa; conditions: for pyocyanin production: 6f 200 nM
Experimental: This assay was extended further to investigate the effect of 6f on pyocyanin production in different P. aeruginosa at 6f concentration of 200 nM (Figure 5b).
The experiment was performed following a published protocol with minor modifications. Strains were cultured into 5 mL of fresh medium overnight. […] Cells were centrifuged at 10 000 RCF for 10 min (Allegra 64R centrifuge, Beckman Coulter, High Wycombe, UK), and the supernatant was transferred to 15 mL falcon tubes with a HSW 10 mL Soft-Ject Syringe and a […] Sartorius syringe-driven filter (Fisher Brand, Loughborough, UK). Pyocyanin pigment was extracted into chloroform by mixing 7.5 mL of supernatant with 4.5 mL of chloroform. Pyocyanin was further extracted into 1.5 mL of 0.2 M HCL, which gave a pink/red solution, and the absorbance was measured at 520 nm.[47]

[3] = system: GFP-labeled P. aeruginosa PAO1-L biofilms; experiment: Biofilm viability assay, method 2 (tobramycin, GFP-labeled biofilm, PI); format: cell-based, Pseudomonas aeruginosa
Experimental: Biofilms of PAO1-L were also tested for the impact of 6f on the potentiation of tobramycin activity (method 2).
Figure 7 Effect of 6f and tobramycin on GFP-labeled P. aeruginosa PAO1-L biofilms. (A) Representative CLSM images: (a) Untreated biofilm; (b) biofilm grown with 6f at 1 μM for 16 h; (c) biofilm treated with 100 μg/mL tobramycin for 2 or 6 h after 16 h of growth; (d) biofilm grown with 1 μM 6f and treated with (6f 1 μM), tobramycin (100 μg/mL) for 2 or 6 h after 16 h of growth. Dead cells and extracellular DNA were stained red with propidium iodide (PI). Three-dimensional (3D) sections and cross sections are shown. Scale bar represents 100 μm. (B) Quantitative analysis of biofilm biomass at different conditions of treatment compared with a solvent vehicle control.
Biofilms were cultivated on borosilicate glass coverslips in Petri dishes. P. aeruginosa strains, […], was transformed with plasmid pMMG, which constitutively expresses GFP from the Ptac promoter.[50] The tagged strain was grown at 37 °C, for 16 h, in 2 mL of RPMI-1640 (Lonza, Slough, UK), supplemented with 20 mM D-glucose (Sigma–Aldrich, Dorset, UK) and 2 μM FeCl3 (Sigma–Aldrich, Dorset, UK). Cultures were diluted 1:100 in fresh medium and allowed to grow for a further 4 h, or until an OD600 of 0.5 was reached. The mid logarithmic cultures were diluted to an OD600 of 0.01 in 25 mL of RPMI, supplemented with glucose and FeCl3, and inoculated into Petri dishes containing UV sterilized borosilicate glass coverslips (22 mm × 22 mm, thickness no1) (VWR, Lutterworth, UK). Bacterial cells were seeded at 37 ◦C under static conditions for 1.5 h, and compound 6f was supplemented to the 6f treated samples (6f, 6f + Tob samples) at a concentration of 1 μM before dishes were transferred to a shaker at 60 rpm and 37 ◦C for 16 h to form mature biofilms. Tobramycin and propidium iodide were added to the 16 h old cultures at concentrations of 100 μg/mL and 2 μM, respectively, followed by further incubation for 2 or 6 h. […]

[4] = set-up: method as in PMID 33073099; conditions: human microsomes; cited from earlier work
[5] = set-up: method as in PMID 33073099; conditions: rats; intratracheal; coarse suspension; cited from earlier work

CC(C)n1c(NCC(O)COc2ccc(CC#N)cc2)nc2ccc(Cl)cc21 (centres unmarked) [Compound 6f, 2-(4-(3-((6-Chloro-1-isopropyl-1H-benzo[d]imidazol-2-yl)amino)-2-hydroxypropoxy)phenyl) Acetonitrile]
HHQ and PQS levels ([1]; 0.2 μM 6f, IPCD1331): no significant reduction
HQNO concentrations ([1]; 0.2 μM 6f, IPCD1451 CF isolate): nonsignificant reduction
AQ production ([1]; 0.2 μM 6f, LESB58 strain): moderate but significant reduction
HHQ and PQS levels ([1]; 0.2 μM 6f, PAO1-L, PA14 and IPCD48 CF isolate, vs untreated): substantially reduced
inhibition at 0.2 µM ([1]; Pseudomonas aeruginosa, read-out: HQNO inhibition): 20 to 60%
pyocyanin production ([2]; IPCD1451): nonsignificant inhibition
pyocyanin production ([2]; all strains except IPCD1451): inhibited pyocyanin production
inhibition of pyocyanin production ([2]; PAO1-L, concentration three times the IC50, relative to DMSO): ~80%
biofilm killing, combination with tobramycin ([3]; 6f 1 μM + tobramycin 100 μg/mL, 2 and 6 h of incubation): enhanced the killing
live cells in biofilm, combination with tobramycin ([3]; 6f 1 μM + tobramycin 100 μg/mL, 6 h): no live cells present
viability of preformed biofilms, 6f on its own ([3]; PAO1-L biofilm, 6f 1 μM): did not impact on the viability
half-life [4]: relatively short
clearance from lung to plasma [5]: rapid clearance
systemic clearance [5]: fast systemic clearance
